In patent publication US20080260644A1, “CHLORIDE TRANSPORT UPREGULATION FOR THE TREATMENT OF TRAUMATIC BRAIN INJURY” (priority 2005, published 2008):

Experiments:
dentate granule cells = assay: Gramicidin perforated patch recording of the membrane potential response to GABA in dentate granule cells in brain slices; format: cell-based, mouse
Procedure: Brain slices were prepared as previously reported (Witgen et al. (2005) Neuroscience, 133:1-15). Perforated patch recordings were conducted at room temperature from visually identified DG neurons using infrared differential interference contrast video microscopy (Stuart et al. (1993) Pflugers Arch., 423:511-8). Cells were voltage clamped at −60 mV, and signals were recorded and amplified with Axopatch 200 (Axon instruments, Foster city, CA), filtered at 2 kHz, digitized, and stored on a PC microcomputer for off line analysis. Electrodes were pulled to a resistance between 6 and 8 MΩ when filled with an internal solution composed of in (mM): 100 KCl, 10 Hepes, pH 7.4 (KOH), on a two stage puller (Sutter instruments, Novato, Calif.). Gramicidin (Sigma, St. Louis) was dissolved in dimethyllsulfuxide (DMSO, Sigma) (1-2 mg/ml) then diluted in the pipette filling solution (1:1000). Progress of membrane patch perforation was evaluated by following the decrease in access resistance (Ra) and recordings were begun once Ra had stabilized ([…]). Current-voltage (IV) relationships were generated using a voltage ramp (−110 to +40 ata rate of 107 mV/ms) in the absence and presence of agonist (GABA, 100 μM, applied 125 ms, 40-60 PSI using a Picospritzer II, General Valve Corporation, Fairfield, N.J.). For chloride fluorescence experiments, the internal solution was composed of (in mM) Kgluconate, 145; MgCl2, 2; BAPTA, 0.1; KCl, 2.5; NaCl, 2.5; HEPES, 10; GTP-Tris, 0.5; Mg-ATP, 2; pH 7.4 (KOH; Vhold=0 mV). For low K^+ experiments, KCl concentration was reduced from 3 to 1 mM while the concentration of NaCl was increased to maintain tonicity.
In order to investigate the functional consequences of reduced KCC2 expression in DG from injured animals, gramacidin perforated patch recordings were performed in dentate granule cells in brain slices derived from sham and FPI animals. Current-voltage (1-V) relationships were created using a voltage ramp that stepped the membrane voltage from a holding potential of −60 mV to −110 mV for 200 ms and then ramped the voltage from −110 to +40 mV at a rate of 107 mV/msec. I-V relationships were plotted by subtracting ramp currents recorded in control solution (aCSF) from currents recorded in the presence of ionophoresed agonist (GABA 100 μm) in brain slices from both sham (FIG. 2A) and FPI (FIG. 2B) animals. […] Mean EGABA values were −72±4.3 (n=7) in sham slices and −51±4.0 mV (n=16) in FPI slices. To ensure that the perforated patch configuration remained intact during the experiment, in several dentate granule cells (recorded in slices from both sham and injured animals) the patch was subsequently ruptured to enter into the whole cell configuration. […]

dentate gyrus = assay: Dentate gyrus throughput index (TI), voltage sensitive dye fluorescence in hippocampal slices; format: cell-based, mouse
Text: Slices were stimulated in the perforant pathway with one theta burst stimulation (TBS) (5 pulses of 50 μA at 100 Hz). Circles (kernels) represent average fluorescent signals in the DG and hilus respectively. FIG. 5B is a graph of the percent throughput of sham and injured (LFPI) mice.
Normal hippocampal function is directly determined by a balance between neuronal excitation and inhibition. Within the hippocampus there are three interconnected subregions referred to collectively as the ‘Trisynaptic Circuit.’ This circuit consists of the dentate gyrus (DG), area CA3, and area CA1, each having distinct physiological roles. The DG “filters” out aberrant or excessive input to the hippocampus and limits this activity from propagating further along the hippocampal circuit. […]
It is believed that the DG acts as a filter because it is extraordinarily resistant to the generation of synchronized bursting characteristic of epileptic seizures. […] Making use of fluorescent voltage sensitive dyes as a measure of hippocampal neuronal activity, a straightforward relationship has been devised in order to quantify the efficacy of dentate gyrus filtering capacity. “Throughput Index” (TI) is defined as the amount of fluorescence in the hilus divided by the fluorescence in the upper (suprapyramidal) blade of the dentate gyrus induced by afferent (perforant path) stimulation. […]

With NCCCC(=O)O [GABA, gamma-aminobutyric acid] the “membrane potential response to iontophoresed GABA” value (dentate granule cells; DG neurons from naïve or sham animals, GABA 100 μM) was −14±0.7 mV and the “membrane potential response to iontophoresed GABA” value (dentate granule cells; DG neurons in slices from injured (FPI) animals) was “depolarizing response”.

In the case of CCCC(=O)O[C@@H]1[C@@H](C)[C@@]2(O)[C@@H](C=C(CO)C[C@]3(O)C(=O)C(C)=C[C@@H]23)[C@@H]2C(C)(C)[C@]12OC(=O)CCC [PDBu, phorbol 12,13-dibutyrate], the “effect on dentate gyrus throughput index (TI)” value (dentate gyrus; slices from brain injured (FPI) animals) is reported as “significantly (p<0.05) reduces” and the “effect on DG filtering (TI)” value (dentate gyrus; slices from sham animals) is reported as “does not affect”.

For CCCCNc1cc(C(=O)O)cc(S(N)(=O)=O)c1Oc1ccccc1 [bumetanide], the “GABA response in the presence of bumetanide compared to GABA alone” value (dentate granule cells; slices from sham animals, bumetanide 10 μM) was 39% and the “response to focally applied GABA in the presence of bumetanide” value (dentate granule cells; slices from sham animals, bumetanide 10 μM bath applied, n=15) was −5±3.1 mV.
